Data reported in US10391080B2, “Ketorolac for the treatment of cancer” (Cipla Limited, priority 2016, dated 2019).

Columns and labels:
Par-4 = details: mouse embryonic fibroblast (MEF) cells; cited from earlier work
[1] = tested on: tumor cell lines of renal cancer; assay: In vitro 3D combination study, clonogenic assay, both cell lines; type: cell-based; details: Homo sapiens, A498; compound alone, colony formation in soft agar, range over RXF 1183L and RXF A-498; read-out: Relative IC50, single agent
Description: The objective of this study was to assess anti-tumor efficacy of ketorolac in combination with sunitinib in a 5×5 matrix combination format against tumor cell lines of renal cancer using a clonogenic assay with image analysis as read-out.
The clonogenic assay was carried out in a 96 well plate format using ultra low attachment plates. For each test cells were prepared as described above, and assay plates were prepared as follows: each test well contained a layer of semi-solid medium with tumor cells (50 μl), and a second layer of medium supernatant with or without test compounds (100 μl). The cell layer consisted of 3×10^3 to 1×10^4 tumor cells per well, which were seeded in 50 μl/well cell culture medium (IMDM, supplemented with 20% (v/v) fetal calf serum, 0.01% (w/v) gentamicin, and 0.4% (w/v) agar). The soft agar layer was immediately covered with 90 μl of the same culture medium without agar. After 24 h the test compounds were added after serial dilution in IMDM and transfer in cell culture medium, and left on the cells for the duration of the experiment (continuous exposure, 100 μL total drug overlay). Every plate included six untreated control wells and drug-treated groups in a layout as shown above. […] At the time of maximum colony formation, counts were performed with an automatic image analysis system (Celllnsight NXT, Thermo Scientific). […]

A498 cells = assay: In vivo animal efficacy study, subcutaneous A498 tumor fragments; parameters: species or system female athymic nude mice; details: for Mean Tumor Volume / Tumor Growth Inhibition (% TGI): Sunitinib 20 mg/kg p.o. q.d. × 21 (G2)
Description: 10 Healthy female athymic nude mice were recruited for the donor cell inoculation. Animals were subcutaneously injected at flank region with 10 million A498 cells suspended in 200 μl of media and matrigel. Animals were monitored for solid tumor growth. […] Tumors were fragmented in to ˜30 mg size. […] [table] The tumor sizes were measured weekly twice from the date of tumor appearance till the end of the experiment. Tumor size was measured by digital vernier caliper (MITUTOYO) by measuring length (L=longest axis) and width (W=shortest axis). Tumor Volume was calculated using the formula: […] Form the tumor volume data mean tumor volume and % tumor growth inhibition (% TGI) were calculated (SEM=standard error of mean).

Structure (SMILES) | PAR-4 secretion (Par-4) | IC50 [1] | Mean Tumor Volume (A498 cells; day 1) | Tumor Growth Inhibition (% TGI) (A498 cells; day 1) | Mean Tumor Volume (A498 cells; day 6) | Tumor Growth Inhibition (% TGI) (A498 cells; day 6) | Mean Tumor Volume (A498 cells; day 9) | Tumor Growth Inhibition (% TGI) (A498 cells; day 9) | Mean Tumor Volume (A498 cells; day 13) | Tumor Growth Inhibition (% TGI) (A498 cells; day 13) | Mean Tumor Volume (A498 cells; day 16) | Tumor Growth Inhibition (% TGI) (A498 cells; day 16) | Mean Tumor Volume (A498 cells; day 20) | Tumor Growth Inhibition (% TGI) (A498 cells; day 20) | Maximum tumor inhibition (A498 cells; Sunitinib alone at a dose of 20 mg/kg)
COc1ccc(C2=N[C@@H](c3ccc(Cl)cc3)[C@@H](c3ccc(Cl)cc3)N2C(=O)N2CCNC(=O)C2)c(OC(C)C)c1 [Nutlin-3a] | stimulated PAR-4 secretion at micromolar levels |  |  |  |  |  |  |  |  |  |  |  |  |  | 
CCN(CC)CCNC(=O)c1c(C)[nH]c(/C=C2\C(=O)Nc3ccc(F)cc32)c1C [Sunitinib] |  | 1.5 to 4.59 µM | 145.40 mm^3 | 1.47% | 174.90 mm^3 | 47.31% | 261.95 mm^3 | 43.52% | 340.62 mm^3 | 44.80% | 448.05 mm^3 | 53.39% | 630.25 mm^3 | 50.78% | 51%
